Laboratory results reported in patent US20150051206A1, “COMPOUNDS AND COMPOSITIONS AS C-KIT KINASE INHIBITORS” (IRM LLC, priority 2011, published 2015).

Biological target: T1, c-kit (Homo sapiens, UniProt P10721)
T1 construct: human Mo7e cells which endogenously express c-kit; endogenous in cells; host or cells: human Mo7e cells (promegakaryocytic leukemia line), stimulated with human recombinant SCF
Test: Mo7e cell proliferation assay (SCF dependent proliferation)
Format: cell-based
Details: Mo7e cells stimulated with human recombinant SCF, 48 hours
Protocol: Compounds of Formula (I) and Formula (II) provided herein were assayed to measure their capacity to inhibit c-kit and PDGFR kinases using the appropriate assay described below: c-Kit inhibition was evaluated using the Mo7e cell proliferation assay, and PDGFR inhibition was evaluated using the Rat A10 cell proliferation assay and the Human TG/HA-VSMC cell proliferation assay.
The compounds of Table 1 and Table 2 were tested for inhibition of SCF dependent proliferation using human Mo7e cells which endogenously express c-kit in a 384 well format. […] After 48 hours of incubation at 37° C., cell viability was measured by adding 25 uL of CellTiter Glo (Promega) to the cells and the luminescence was measured by a CLIPR CCD camera (Molecular Devices).
The IC50 value is given as that concentration of the test compound in question that provoke a response halfway between the baseline and maximum responses.

[1] = Table 1, 20% FBS (values marked *)
[2] = Table 2, 20% FBS instead of 1% FBS (values marked *)

T1 sequence (P10721 26-976): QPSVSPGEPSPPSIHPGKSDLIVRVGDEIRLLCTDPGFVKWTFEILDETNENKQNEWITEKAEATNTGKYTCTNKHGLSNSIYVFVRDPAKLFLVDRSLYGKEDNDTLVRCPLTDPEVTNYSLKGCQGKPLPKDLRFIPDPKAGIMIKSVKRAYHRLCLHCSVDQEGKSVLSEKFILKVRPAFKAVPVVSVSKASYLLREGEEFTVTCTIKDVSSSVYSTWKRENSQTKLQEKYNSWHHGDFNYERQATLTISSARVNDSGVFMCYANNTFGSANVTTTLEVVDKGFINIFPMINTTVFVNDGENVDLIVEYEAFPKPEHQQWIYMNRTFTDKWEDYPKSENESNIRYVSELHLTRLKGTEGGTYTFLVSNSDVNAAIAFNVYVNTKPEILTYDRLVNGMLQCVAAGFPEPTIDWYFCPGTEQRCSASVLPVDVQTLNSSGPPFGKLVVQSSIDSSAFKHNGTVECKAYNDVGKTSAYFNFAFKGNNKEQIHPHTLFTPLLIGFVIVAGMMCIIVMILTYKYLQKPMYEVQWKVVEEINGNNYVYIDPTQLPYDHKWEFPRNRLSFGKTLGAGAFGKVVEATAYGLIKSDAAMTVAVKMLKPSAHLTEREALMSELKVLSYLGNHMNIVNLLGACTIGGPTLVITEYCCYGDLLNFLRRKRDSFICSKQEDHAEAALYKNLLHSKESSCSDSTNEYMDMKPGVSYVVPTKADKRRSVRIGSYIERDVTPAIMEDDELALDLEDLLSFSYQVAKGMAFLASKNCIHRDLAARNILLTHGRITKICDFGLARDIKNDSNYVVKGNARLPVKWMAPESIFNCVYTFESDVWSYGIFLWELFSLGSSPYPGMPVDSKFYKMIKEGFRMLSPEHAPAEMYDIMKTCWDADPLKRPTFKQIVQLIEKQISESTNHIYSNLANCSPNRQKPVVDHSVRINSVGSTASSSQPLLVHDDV

IC50 (Table 1, 1% FBS) | Structure (SMILES) | further results
0.051 µM | Cc1ccc(-c2nc(Nc3ccccc3)no2)cc1NC(=O)c1cnc2ccccn12 [F1, N-(2-methyl-5-(3-(phenylamino)-1,2,4-oxadiazol-5-yl)phenyl)imidazo[1,2-a]pyridine-3-carboxamide] | –
0.016 µM | Cc1ccc(-c2nc(-c3ccccc3)no2)cc1NC(=O)c1cnc2ccccn12 [F2, N-[2-methyl-5-(3-phenyl-1,2,4-oxadiazol-5-yl)phenyl]imidazo[1,2-a]pyridine-3-carboxamide] | –
– | Cc1ccc(-c2nc(Cc3ccccc3)no2)cc1NC(=O)c1cnc2ccccn12 [F3, N-[5-(3-benzyl-1,2,4-oxadiazol-5-yl)-2-methylphenyl]imidazo[1,2-a]pyridine-3-carboxamide] | IC50 [1]: 0.065 µM
– | Cc1ccc(-c2nc(-c3cnccc3C(F)(F)F)no2)cc1NC(=O)c1cnc2ccccn12 [F4, N-(2-methyl-5-{3-[4-(trifluoromethyl)pyridin-3-yl]-1,2,4-oxadiazol-5-yl}phenyl)imidazo[1,2-a]pyridine-3-carboxamide] | IC50 [1]: 0.023 µM
– | Cc1ccc(-c2nc(-c3ccc4c(c3)CCO4)no2)cc1NC(=O)c1cnc2ccccn12 [F5, N-{5-[3-(2,3-dihydro-1-benzofuran-5-yl)-1,2,4-oxadiazol-5-yl]-2-methylphenyl}imidazo[1,2-a]pyridine-3-carboxamide] | IC50 [1]: 0.073 µM
0.089 µM | Cc1ccc(-c2nc(-c3cccc(OC(F)(F)F)c3)no2)cc1NC(=O)c1cnc2ccccn12 [F6, N-(2-methyl-5-{3-[3-(trifluoromethoxy)phenyl]-1,2,4-oxadiazol-5-yl}phenyl)imidazo[1,2-a]pyridine-3-carboxamide] | –
0.069 µM | Cc1ccc(-c2nc(-c3cccc(C(F)(F)F)c3)no2)cc1NC(=O)c1cnc2ccccn12 [F7, N-(2-methyl-5-{3-[3-(trifluoromethyl)phenyl]-1,2,4-oxadiazol-5-yl}phenyl)imidazo[1,2-a]pyridine-3-carboxamide] | –
– | CCOc1cccc(-c2noc(-c3ccc(C)c(NC(=O)c4cnc5ccccn45)c3)n2)c1 [F8, N-{5-[3-(3-ethoxyphenyl)-1,2,4-oxadiazol-5-yl]-2-methylphenyl}imidazo[1,2-a]pyridine-3-carboxamide] | IC50 [1]: 0.066 µM
0.009 µM | Cc1ccc(-c2nc(Cc3ccccc3F)no2)cc1NC(=O)c1cnc2ccccn12 [F9, N-(5-{3-[(2-fluorophenyl)methyl]-1,2,4-oxadiazol-5-yl}-2-methylphenyl)imidazo[1,2-a]pyridine-3-carboxamide] | –
0.04 µM | Cc1ccc(Nc2noc(-c3ccnc(N4CCOCC4)c3)n2)cc1NC(=O)c1cnc2ccccn12 [F12, N-[2-methyl-5-({5-[2-(morpholin-4-yl)pyridin-4-yl]-1,2,4-oxadiazol-3-yl}amino)phenyl]imidazo[1,2-a]pyridine-3-carboxamide] | –
0.071 µM | Cc1ccc(Nc2noc(-c3cccc(N4CCN(C)CC4)c3)n2)cc1NC(=O)c1cnc2ccccn12 [F13, N-[2-methyl-5-({5-[3-(4-methylpiperazin-1-yl)phenyl]-1,2,4-oxadiazol-3-yl}amino)phenyl]imidazo[1,2-a]pyridine-3-carboxamide] | –
0.029 µM | Cc1ccc(Nc2noc(-c3cccc(N4CCOCC4)c3)n2)cc1NC(=O)c1cnc2ccccn12 [F14, N-[2-methyl-5-({5-[3-(morpholin-4-yl)phenyl]-1,2,4-oxadiazol-3-yl}amino)phenyl]imidazo[1,2-a]pyridine-3-carboxamide] | –
0.006 µM | Cc1ccc(Nc2noc(-c3cscn3)n2)cc1NC(=O)c1cnc2ccccn12 [F15, N-(2-methyl-5-{[5-(1,3-thiazol-4-yl)-1,2,4-oxadiazol-3-yl]amino}phenyl)imidazo[1,2-a]pyridine-3-carboxamide] | –
0.027 µM | Cc1ccc(Nc2noc(-c3nccn3C)n2)cc1NC(=O)c1cnc2ccccn12 [F16, N-(2-methyl-5-{[5-(1-methyl-1H-imidazol-2-yl)-1,2,4-oxadiazol-3-yl]amino}phenyl)imidazo[1,2-a]pyridine-3-carboxamide] | –
0.002 µM | Cc1ccc(-c2nc(Nc3ccc(C)c(NC(=O)c4cnc5ccccn45)c3)no2)cn1 [F17, N-(2-methyl-5-{[5-(6-methylpyridin-3-yl)-1,2,4-oxadiazol-3-yl]amino}phenyl)imidazo[1,2-a]pyridine-3-carboxamide] | –
0.009 µM | Cc1ccc(Nc2noc(-c3cnccn3)n2)cc1NC(=O)c1cnc2ccccn12 [F18, N-(2-methyl-5-{[5-(pyrazin-2-yl)-1,2,4-oxadiazol-3-yl]amino}phenyl)imidazo[1,2-a]pyridine-3-carboxamide] | –

IC50 (Table 1, 1% FBS) | Structure (SMILES) | further results
0.082 µM | Cc1ccc(Nc2noc(-c3ncccn3)n2)cc1NC(=O)c1cnc2ccccn12 [F19, N-(2-methyl-5-{[5-(pyrimidin-2-yl)-1,2,4-oxadiazol-3-yl]amino}phenyl)imidazo[1,2-a]pyridine-3-carboxamide] | –
0.01 µM | Cc1ccc(Nc2noc(-c3ccccc3)n2)cc1NC(=O)c1cnc2ccccn12 [F20, N-{2-methyl-5-[(5-phenyl-1,2,4-oxadiazol-3-yl)amino]phenyl}imidazo[1,2-a]pyridine-3-carboxamide] | –
0.008 µM | Cc1ccc(Nc2noc(-c3ccccn3)n2)cc1NC(=O)c1cnc2ccccn12 [F21, N-(2-methyl-5-{[5-(pyridin-2-yl)-1,2,4-oxadiazol-3-yl]amino}phenyl)imidazo[1,2-a]pyridine-3-carboxamide] | –
0.032 µM | Cc1nc(-c2nc(-c3ccc(C)c(NC(=O)c4cnc5ccccn45)c3)no2)c(C(F)(F)F)o1 [F22, N-(2-methyl-5-{5-[2-methyl-5-(trifluoromethyl)-1,3-oxazol-4-yl]-1,2,4-oxadiazol-3-yl}phenyl)imidazo[1,2-a]pyridine-3-carboxamide] | –
0.061 µM | Cc1nc(C(F)(F)F)c(-c2nc(-c3ccc(C)c(NC(=O)c4cnc5ccccn45)c3)no2)s1 [F23, N-(2-methyl-5-{5-[2-methyl-4-(trifluoromethyl)-1,3-thiazol-5-yl]-1,2,4-oxadiazol-3-yl}phenyl)imidazo[1,2-a]pyridine-3-carboxamide] | –
– | Cc1ccc(-c2nc(-c3ccccn3)no2)cc1NC(=O)c1cnc2ccccn12 [F24, N-(2-methyl-5-(3-(pyridin-2-yl)-1,2,4-oxadiazol-5-yl)phenyl)imidazo[1,2-a]pyridine-3-carboxamide] | IC50 (Table 2, 1% FBS): 0.137 µM
– | Cc1ccc(-c2nc(-c3cnccn3)no2)cc1NC(=O)c1cnc2ccccn12 [F25, N-{2-methyl-5-[3-(pyrazin-2-yl)-1,2,4-oxadiazol-5-yl]phenyl}imidazo[1,2-a]pyridine-3-carboxamide] | IC50 [2]: 0.424 µM
– | Cc1ccc(-c2nc(-c3c(Cl)cccc3Cl)no2)cc1NC(=O)c1cnc2ccccn12 [F26, N-{5-[3-(2,6-dichlorophenyl)-1,2,4-oxadiazol-5-yl]-2-methylphenyl}imidazo[1,2-a]pyridine-3-carboxamide] | IC50 [2]: 0.845 µM
– | Cc1ccc(-c2nc(-c3ccc(Cl)cc3)no2)cc1NC(=O)c1cnc2ccccn12 [F27, N-{5-[3-(4-chlorophenyl)-1,2,4-oxadiazol-5-yl]-2-methylphenyl}imidazo[1,2-a]pyridine-3-carboxamide] | IC50 [2]: 0.274 µM
– | Cc1cccc(-c2noc(-c3ccc(C)c(NC(=O)c4cnc5ccccn45)c3)n2)n1 [F28, N-(2-methyl-5-(3-(6-methylpyridin-2-yl)-1,2,4-oxadiazol-5-yl)phenyl)imidazo[1,2-a]pyridine-3-carboxamide] | IC50 (Table 2, 1% FBS): 0.252 µM
– | Cc1ccc(-c2nc(-c3ncccc3F)no2)cc1NC(=O)c1cnc2ccccn12 [F29, N-{5-[3-(3-fluoropyridin-2-yl)-1,2,4-oxadiazol-5-yl]-2-methylphenyl}imidazo[1,2-a]pyridine-3-carboxamide] | IC50 [2]: 0.205 µM
– | Cc1ccc(-c2nc(-c3ccc(C(F)(F)F)cn3)no2)cc1NC(=O)c1cnc2ccccn12 [F30, N-(2-methyl-5-{3-[5-(trifluoromethyl)pyridin-2-yl]-1,2,4-oxadiazol-5-yl}phenyl)imidazo[1,2-a]pyridine-3-carboxamide] | IC50 [2]: 0.359 µM
– | Cc1ccc(-c2nc(-c3ccc(C(F)(F)F)cc3)no2)cc1NC(=O)c1cnc2ccccn12 [F31, N-(2-methyl-5-{3-[4-(trifluoromethyl)phenyl]-1,2,4-oxadiazol-5-yl}phenyl)imidazo[1,2-a]pyridine-3-carboxamide] | IC50 (Table 2, 1% FBS): 1.04 µM
– | Cc1ccc(-c2nc(COc3ccccc3)no2)cc1NC(=O)c1cnc2ccccn12 [F32, N-{2-methyl-5-[3-(phenoxymethyl)-1,2,4-oxadiazol-5-yl]phenyl}imidazo[1,2-a]pyridine-3-carboxamide] | IC50 [2]: 0.249 µM
– | COc1ccnc(-c2noc(-c3ccc(C)c(NC(=O)c4cnc5ccccn45)c3)n2)c1 [F33, N-{5-[3-(4-methoxypyridin-2-yl)-1,2,4-oxadiazol-5-yl]-2-methylphenyl}imidazo[1,2-a]pyridine-3-carboxamide] | IC50 [2]: 0.265 µM
– | Cc1ccc(-c2nc(-c3cnccc3C)no2)cc1NC(=O)c1cnc2ccccn12 [F34, N-{2-methyl-5-[3-(4-methylpyridin-3-yl)-1,2,4-oxadiazol-5-yl]phenyl}imidazo[1,2-a]pyridine-3-carboxamide] | IC50 [2]: 0.139 µM

Structure (SMILES) | IC50 (Table 1, 1% FBS) | further results
Cc1ccnc(-c2noc(-c3ccc(C)c(NC(=O)c4cnc5ccccn45)c3)n2)c1 [F10, N-{2-methyl-5-[3-(4-methylpyridin-2-yl)-1,2,4-oxadiazol-5-yl]phenyl}imidazo[1,2-a]pyridine-3-carboxamide] | 0.024 µM | –
Cc1ccc(-c2noc(-c3ccccn3)n2)cc1NC(=O)c1cnc2ccccn12 [F11, N-(2-methyl-5-(5-(pyridin-2-yl)-1,2,4-oxadiazol-3-yl)phenyl)imidazo[1,2-a]pyridine-3-carboxamide] | 0.075 µM | –
